Assays:
Design in all cases: scale not given here
AMBEL Ragweed, Common [1] = test: Postemergence herbicidal evaluation, AMBEL; assay type: in vivo, Ambrosia artemisifolia, L.; settings: postemergence spray, rated about two-three weeks after treatment
Outline: (§1)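 Seedlings grown about two weeks were sprayed with compound in 80/20 acetone/water containing 1.0% methylated seed oil, at the equivalent of about 0.006 to 0.400 kg/ha, through a nozzle at 40 psi. Plants were kept in the greenhouse and rated visually about two to three weeks after treatment.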

GALAP Galium [2] = test: Preemergence herbicidal evaluation, GALAP; assay type: in vivo, Galium aparine; settings: preemergence
Outline: (§2)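 Visual ratings were taken four to five weeks after application. Before that, cups sown with seed in potting soil received a spray of compound dissolved in aqueous acetone, equivalent to about 0.013 to 0.800 kg/ha, and stood on greenhouse benches under conventional care.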

ECHOG Barnyardgrass [3] = test: Preemergence herbicidal evaluation, ECHOG; assay type: in vivo, Echinochloa crus-galli, (L.) Beau; settings: preemergence
Outline: as §2

GLXMAW Soybean, Williams [4] = test: Postemergence herbicidal evaluation, GLXMAW; assay type: in vivo, Glycine max, (L.) Merr. cv Williams; settings: postemergence spray, rated about two-three weeks after treatment
Outline: as §1

CASOB Sicklepod [5] = test: Postemergence herbicidal evaluation, CASOB; assay type: in vivo, Cassia obtusifolia, L.; settings: postemergence spray, rated about two-three weeks after treatment
Outline: as §1

[6] = test system: IPOHE Morningglory, Ivyleaf; test: Postemergence herbicidal evaluation, IPOHE; assay type: in vivo, Ipomoea hederacea, (L.) Jacq.; settings: postemergence spray, rated about two-three weeks after treatment
Outline: as §1

AMBEL Ragweed, Common [7] = test: Preemergence herbicidal evaluation, AMBEL; assay type: in vivo, Ambrosia artemisifolia, L.; settings: preemergence
Outline: as §2

GALAP Galium [8] = test: Postemergence herbicidal evaluation, GALAP; assay type: in vivo, Galium aparine; settings: postemergence spray, rated about two-three weeks after treatment
Outline: as §1

ZEAMX Corn, Field [9] = test: Postemergence herbicidal evaluation, ZEAMX; assay type: in vivo, Zea mays, L. (Sammel-Bezeichnung); settings: postemergence spray, rated about two-three weeks after treatment
Outline: as §1

[10] = test system: CHEAL Lambsquarters, Common; test: Postemergence herbicidal evaluation, CHEAL; assay type: in vivo, Chenopodium album, L.; settings: postemergence spray, rated about two-three weeks after treatment
Outline: as §1

[11] = test system: IPOHE Morningglory, Ivyleaf; test: Preemergence herbicidal evaluation, IPOHE; assay type: in vivo, Ipomoea hederacea, (L.) Jacq.; settings: preemergence
Outline: as §2

GLXMAW Soybean, Williams [12] = test: Preemergence herbicidal evaluation, GLXMAW; assay type: in vivo, Glycine max, (L.) Merr. cv Williams; settings: preemergence
Outline: as §2

ORYSAT Rice, Tebonnet [13] = test: Preemergence herbicidal evaluation, ORYSAT; assay type: in vivo, Oryza sativa, (L.); settings: preemergence
Outline: as §2

[14] = test system: TRZAWR Wheat, Winter, cv Riband; test: Preemergence herbicidal evaluation, TRZAWR; assay type: in vivo, Triticum aestivum; settings: preemergence
Outline: as §2

CASOB Sicklepod [15] = test: Preemergence herbicidal evaluation, CASOB; assay type: in vivo, Cassia obtusifolia, L.; settings: preemergence
Outline: as §2

SETVI Foxtail, Green [16] = test: Preemergence herbicidal evaluation, SETVI; assay type: in vivo, Setaria viridis, (L.) Beau; settings: preemergence
Outline: as §2

ZEAMX Corn, Field [17] = test: Preemergence herbicidal evaluation, ZEAMX; assay type: in vivo, Zea mays, L. (Sammel-Bezeichnung); settings: preemergence
Outline: as §2

ABUTH Velvetleaf [18] = test: Postemergence herbicidal evaluation, ABUTH; assay type: in vivo, Abutilon theophrasti, Medic.; settings: postemergence spray, rated about two-three weeks after treatment
Outline: as §1

SETVI Foxtail, Green [19] = test: Postemergence herbicidal evaluation, SETVI; assay type: in vivo, Setaria viridis, (L.) Beau; settings: postemergence spray, rated about two-three weeks after treatment
Outline: as §1

[20] = test system: TRZAWR Wheat, Winter, cv Riband; test: Postemergence herbicidal evaluation, TRZAWR; assay type: in vivo, Triticum aestivum; settings: postemergence spray, rated about two-three weeks after treatment
Outline: as §1

ABUTH Velvetleaf [21] = test: Preemergence herbicidal evaluation, ABUTH; assay type: in vivo, Abutilon theophrasti, Medic.; settings: preemergence
Outline: as §2

ECHOG Barnyardgrass [22] = test: Postemergence herbicidal evaluation, ECHOG; assay type: in vivo, Echinochloa crus-galli, (L.) Beau; settings: postemergence spray, rated about two-three weeks after treatment
Outline: as §1

ORYSAT Rice, Tebonnet [23] = test: Postemergence herbicidal evaluation, ORYSAT; assay type: in vivo, Oryza sativa, (L.); settings: postemergence spray, rated about two-three weeks after treatment
Outline: as §1

[24] = test system: CHEAL Lambsquarters, Common; test: Preemergence herbicidal evaluation, CHEAL; assay type: in vivo, Chenopodium album, L.; settings: preemergence
Outline: as §2

## CCc1ccc(-n2nnc3cc(F)c(-n4c(=O)cc(C(F)(F)F)n(C)c4=O)cc32)cc1COC [Example 28]
AMBEL Ragweed, Common [1]; 0.008 kg/ha
  Postemergence herbicidal rating AMBEL: 9.0
AMBEL Ragweed, Common [1]; 0.016 kg/ha
  Postemergence herbicidal rating AMBEL: 9.0
AMBEL Ragweed, Common [1]; 0.032 kg/ha
  Postemergence herbicidal rating AMBEL: 9.0
AMBEL Ragweed, Common [1]; 0.062 kg/ha
  Postemergence herbicidal rating AMBEL: 9.0
GALAP Galium [2]; rate 0.016 kg/ha
  GALAP herbicidal rating: 0.0
GALAP Galium [2]; rate 0.032 kg/ha
  GALAP herbicidal rating: 0.0
GALAP Galium [2]; rate 0.062 kg/ha
  GALAP herbicidal rating: 0.0
GALAP Galium [2]; rate 0.125 kg/ha
  GALAP herbicidal rating: 9.0
ECHOG Barnyardgrass [3]; rate 0.016 kg/ha
  ECHCG herbicidal rating: 0.0
ECHOG Barnyardgrass [3]; rate 0.032 kg/ha
  ECHCG herbicidal rating: 0.0
ECHOG Barnyardgrass [3]; rate 0.062 kg/ha
  ECHCG herbicidal rating: 0.0
ECHOG Barnyardgrass [3]; rate 0.125 kg/ha
  ECHCG herbicidal rating: 7.0
GLXMAW Soybean, Williams [4]; 0.008 kg/ha
  Postemergence herbicidal rating GLXMAW: 4.0
GLXMAW Soybean, Williams [4]; 0.016 kg/ha
  Postemergence herbicidal rating GLXMAW: 5.0
GLXMAW Soybean, Williams [4]; 0.032 kg/ha
  Postemergence herbicidal rating GLXMAW: 6.0
GLXMAW Soybean, Williams [4]; 0.062 kg/ha
  Postemergence herbicidal rating GLXMAW: 6.5
CASOB Sicklepod [5]; 0.008 kg/ha
  Postemergence herbicidal rating CASOB: 0.0
CASOB Sicklepod [5]; 0.016 kg/ha
  Postemergence herbicidal rating CASOB: 0.0
CASOB Sicklepod [5]; 0.032 kg/ha
  Postemergence herbicidal rating CASOB: 1.0
CASOB Sicklepod [5]; 0.062 kg/ha
  Postemergence herbicidal rating CASOB: 3.0
[6]; 0.008 kg/ha
  Postemergence herbicidal rating IPOHE: 9.0
[6]; 0.016 kg/ha
  Postemergence herbicidal rating IPOHE: 9.0
[6]; 0.032 kg/ha
  Postemergence herbicidal rating IPOHE: 9.0
[6]; 0.062 kg/ha
  Postemergence herbicidal rating IPOHE: 9.0
AMBEL Ragweed, Common [7]; rate 0.016 kg/ha
  AMBEL herbicidal rating: 0.0
AMBEL Ragweed, Common [7]; rate 0.032 kg/ha
  AMBEL herbicidal rating: 0.0
AMBEL Ragweed, Common [7]; rate 0.062 kg/ha
  AMBEL herbicidal rating: 1.0
AMBEL Ragweed, Common [7]; rate 0.125 kg/ha
  AMBEL herbicidal rating: 7.0
GALAP Galium [8]; 0.008 kg/ha
  Postemergence herbicidal rating GALAP: 4.0
GALAP Galium [8]; 0.016 kg/ha
  Postemergence herbicidal rating GALAP: 4.0
GALAP Galium [8]; 0.032 kg/ha
  Postemergence herbicidal rating GALAP: 6.0
GALAP Galium [8]; 0.062 kg/ha
  Postemergence herbicidal rating GALAP: 8.0
ZEAMX Corn, Field [9]; 0.008 kg/ha
  Postemergence herbicidal rating ZEAMX: 3.5
ZEAMX Corn, Field [9]; 0.016 kg/ha
  Postemergence herbicidal rating ZEAMX: 6.0
ZEAMX Corn, Field [9]; 0.032 kg/ha
  Postemergence herbicidal rating ZEAMX: 6.0
ZEAMX Corn, Field [9]; 0.062 kg/ha
  Postemergence herbicidal rating ZEAMX: 7.5
[10]; 0.008 kg/ha
  Postemergence herbicidal rating CHEAL: 2.0
[10]; 0.016 kg/ha
  Postemergence herbicidal rating CHEAL: 4.0
[10]; 0.032 kg/ha
  Postemergence herbicidal rating CHEAL: 7.0
[10]; 0.062 kg/ha
  Postemergence herbicidal rating CHEAL: 9.0
[11]; rate 0.016 kg/ha
  IPOHE herbicidal rating: 0.0
[11]; rate 0.032 kg/ha
  IPOHE herbicidal rating: 0.0
[11]; rate 0.062 kg/ha
  IPOHE herbicidal rating: 1.0
[11]; rate 0.125 kg/ha
  IPOHE herbicidal rating: 1.0
GLXMAW Soybean, Williams [12]; rate 0.016 kg/ha
  GLXMAW herbicidal rating: 0.0
GLXMAW Soybean, Williams [12]; rate 0.032 kg/ha
  GLXMAW herbicidal rating: 0.0
GLXMAW Soybean, Williams [12]; rate 0.062 kg/ha
  GLXMAW herbicidal rating: 0.0
GLXMAW Soybean, Williams [12]; rate 0.125 kg/ha
  GLXMAW herbicidal rating: 0.0
ORYSAT Rice, Tebonnet [13]; rate 0.016 kg/ha
  ORYSAT herbicidal rating: 0.0
ORYSAT Rice, Tebonnet [13]; rate 0.032 kg/ha
  ORYSAT herbicidal rating: 0.0
ORYSAT Rice, Tebonnet [13]; rate 0.062 kg/ha
  ORYSAT herbicidal rating: 0.0
ORYSAT Rice, Tebonnet [13]; rate 0.125 kg/ha
  ORYSAT herbicidal rating: 0.0
[14]; rate 0.016 kg/ha
  TRZAWR herbicidal rating: 0.0
[14]; rate 0.032 kg/ha
  TRZAWR herbicidal rating: 0.0
[14]; rate 0.062 kg/ha
  TRZAWR herbicidal rating: 0.0
[14]; rate 0.125 kg/ha
  TRZAWR herbicidal rating: 0.0
CASOB Sicklepod [15]; rate 0.016 kg/ha
  CASOB herbicidal rating: 0.0
CASOB Sicklepod [15]; rate 0.032 kg/ha
  CASOB herbicidal rating: 0.0
CASOB Sicklepod [15]; rate 0.062 kg/ha
  CASOB herbicidal rating: 0.0
SETVI Foxtail, Green [16]; rate 0.016 kg/ha
  SETVI herbicidal rating: 0.0
SETVI Foxtail, Green [16]; rate 0.032 kg/ha
  SETVI herbicidal rating: 2.0
SETVI Foxtail, Green [16]; rate 0.062 kg/ha
  SETVI herbicidal rating: 4.0
SETVI Foxtail, Green [16]; rate 0.125 kg/ha
  SETVI herbicidal rating: 9.0
ZEAMX Corn, Field [17]; rate 0.016 kg/ha
  ZEAMX herbicidal rating: 0.0
ZEAMX Corn, Field [17]; rate 0.032 kg/ha
  ZEAMX herbicidal rating: 3.0
ZEAMX Corn, Field [17]; rate 0.062 kg/ha
  ZEAMX herbicidal rating: 4.0
ZEAMX Corn, Field [17]; rate 0.125 kg/ha
  ZEAMX herbicidal rating: 5.0
ABUTH Velvetleaf [18]; 0.008 kg/ha
  Postemergence herbicidal rating ABUTH: 9.0
ABUTH Velvetleaf [18]; 0.016 kg/ha
  Postemergence herbicidal rating ABUTH: 9.0
ABUTH Velvetleaf [18]; 0.032 kg/ha
  Postemergence herbicidal rating ABUTH: 9.0
ABUTH Velvetleaf [18]; 0.062 kg/ha
  Postemergence herbicidal rating ABUTH: 9.0
SETVI Foxtail, Green [19]; 0.008 kg/ha
  Postemergence herbicidal rating SETVI: 0.0
SETVI Foxtail, Green [19]; 0.016 kg/ha
  Postemergence herbicidal rating SETVI: 3.0
SETVI Foxtail, Green [19]; 0.032 kg/ha
  Postemergence herbicidal rating SETVI: 7.0
SETVI Foxtail, Green [19]; 0.062 kg/ha
  Postemergence herbicidal rating SETVI: 9.0
[20]; 0.008 kg/ha
  Postemergence herbicidal rating TRZAWR: 2.5
[20]; 0.016 kg/ha
  Postemergence herbicidal rating TRZAWR: 4.5
[20]; 0.032 kg/ha
  Postemergence herbicidal rating TRZAWR: 4.5
[20]; 0.062 kg/ha
  Postemergence herbicidal rating TRZAWR: 5.5
ABUTH Velvetleaf [21]; rate 0.032 kg/ha
  ABUTH herbicidal rating: 2.0
ABUTH Velvetleaf [21]; rate 0.062 kg/ha
  ABUTH herbicidal rating: 9.0
ABUTH Velvetleaf [21]; rate 0.125 kg/ha
  ABUTH herbicidal rating: 9.0
ECHOG Barnyardgrass [22]; 0.008 kg/ha
  Postemergence herbicidal rating ECHCG: 0.0
ECHOG Barnyardgrass [22]; 0.016 kg/ha
  Postemergence herbicidal rating ECHCG: 0.0
ECHOG Barnyardgrass [22]; 0.032 kg/ha
  Postemergence herbicidal rating ECHCG: 1.0
ECHOG Barnyardgrass [22]; 0.062 kg/ha
  Postemergence herbicidal rating ECHCG: 1.0
ORYSAT Rice, Tebonnet [23]; 0.008 kg/ha
  Postemergence herbicidal rating ORYSAT: 0.5
ORYSAT Rice, Tebonnet [23]; 0.016 kg/ha
  Postemergence herbicidal rating ORYSAT: 2.0
ORYSAT Rice, Tebonnet [23]; 0.032 kg/ha
  Postemergence herbicidal rating ORYSAT: 3.0
ORYSAT Rice, Tebonnet [23]; 0.062 kg/ha
  Postemergence herbicidal rating ORYSAT: 5.5
[24]; rate 0.016 kg/ha
  CHEAL herbicidal rating: 3.0
[24]; rate 0.032 kg/ha
  CHEAL herbicidal rating: 9.0
[24]; rate 0.062 kg/ha
  CHEAL herbicidal rating: 9.0
[24]; rate 0.125 kg/ha
  CHEAL herbicidal rating: 9.0
